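Interpolation was linear, between the two tested concentrations surrounding the appropriate level; five concentrations were tested over 48 hours in 96-well plates. GI50: concentration for 50% inhibition of growth.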 Activity calls are given as the source filed them. Cut-off read from the data, not from the text of the source: active = GI50 up to about 1.1 µM and inactive = higher.
Key:
Experiment in all cases: DTP human tumour cell line panel, 48 h
HL-60 = test system: HL-60
MDA-N = test system: MDA-N
MCF7 = test system: MCF7
TK-10 = test system: TK-10
LOX IMVI = test system: LOX IMVI
M14 = test system: M14
HOP-62 = test system: HOP-62
CAKI-1 = test system: CAKI-1
PC-3 = test system: PC-3
A498 = test system: A498
NCI/ADR-RES = test system: NCI/ADR-RES
T47D = test system: T47D
SK-MEL-2 = test system: SK-MEL-2
SR = test system: SR
BT-549 = test system: BT-549
UACC-62 = test system: UACC-62
SF-268 = test system: SF-268
CCRF-CEM = test system: CCRF-CEM

Measured: GI50

O=C1OC2(c3ccc(O)cc3Oc3cc(O)ccc32)c2c1c(-c1ccccc1)c(-c1ccccc1)c(-c1ccccc1)c2-c1ccccc1
inactive: HL-60 14.8 µM | MDA-N 21.8 µM | MCF7 17.1 µM | TK-10 23.7 µM | LOX IMVI 18.5 µM | M14 18.2 µM | HOP-62 23.7 µM | CAKI-1 25.1 µM | PC-3 17.9 µM | A498 19.7 µM | NCI/ADR-RES 31.2 µM | T47D 26.5 µM | SK-MEL-2 20 µM | SR 22.6 µM | BT-549 23.6 µM | UACC-62 18.7 µM | SF-268 22.2 µM

CC(C)(C)N(Cc1ccc2c(c1)OCO2)C(=O)/C=C\[S+]([O-])c1ccccc1 (stereo not given)
inactive: HL-60 2.11 µM | MDA-N 2.4 µM | MCF7 2.77 µM | TK-10 4.55 µM | LOX IMVI 1.44 µM | M14 2.28 µM | HOP-62 4.88 µM | CAKI-1 4.53 µM | PC-3 2.5 µM | A498 9.48 µM | NCI/ADR-RES 2.48 µM | T47D 2.56 µM | SK-MEL-2 3.02 µM | SR 1.44 µM | BT-549 2.43 µM | UACC-62 3.37 µM | SF-268 1.23 µM
active: CCRF-CEM 0.83 µM

COc1cc(/C=C2\CCC(C)C3=C(c4cc(OC)c(OC)c(OC)c4)C(C#N)=C(N)OC32)cc(OC)c1OC (stereo not given)
inactive: HL-60 1.67 µM | MDA-N 2.47 µM | MCF7 2.24 µM | TK-10 4.21 µM | LOX IMVI 2 µM | M14 2.23 µM | HOP-62 7.45 µM | CAKI-1 4.73 µM | PC-3 1.83 µM | A498 4 µM | NCI/ADR-RES 3.74 µM | T47D 2.1 µM | SK-MEL-2 2.09 µM | SR 1.49 µM | BT-549 5.97 µM | CCRF-CEM 2.05 µM | UACC-62 2.45 µM | SF-268 3.59 µM

O=C(O)CCC1(c2ccccc2)NC(=O)NC1=O (stereo not given)
inactive: HL-60 > 100 µM | MDA-N > 100 µM | MCF7 > 100 µM | TK-10 > 100 µM | LOX IMVI > 100 µM | HOP-62 > 100 µM | CAKI-1 > 100 µM | PC-3 > 100 µM | A498 > 100 µM | NCI/ADR-RES > 100 µM | T47D > 100 µM | SK-MEL-2 > 100 µM | SR > 100 µM | BT-549 > 100 µM | CCRF-CEM > 100 µM | UACC-62 > 100 µM | SF-268 > 100 µM

[O-][Cl+3]([O-])([O-])O.c1ccc(C2=NN2c2ccccc2)cc1
active: LOX IMVI 0.451 µM
inactive: MDA-N 4.27 µM | MCF7 60 µM | TK-10 > 100 µM | M14 9.82 µM | HOP-62 > 100 µM | CAKI-1 > 100 µM | PC-3 6.7 µM | A498 > 100 µM | NCI/ADR-RES > 100 µM | T47D 7.13 µM | SK-MEL-2 > 100 µM | SR 26.7 µM | BT-549 > 100 µM | CCRF-CEM > 100 µM | UACC-62 1.21 µM | SF-268 21.8 µM

[O-]c1c[n+](CC[n+]2cc([O-])on2)no1
inactive: HL-60 > 100 µM | MDA-N > 100 µM | MCF7 > 100 µM | TK-10 > 100 µM | LOX IMVI > 100 µM | M14 > 100 µM | HOP-62 > 100 µM | CAKI-1 > 100 µM | PC-3 > 100 µM | A498 > 100 µM | NCI/ADR-RES > 100 µM | T47D > 100 µM | SK-MEL-2 > 100 µM | SR > 100 µM | BT-549 > 100 µM | CCRF-CEM > 100 µM | UACC-62 > 100 µM | SF-268 > 100 µM

O=Cc1c2ccccc2n2ccc3c4ccccc4[nH]c3c12
inactive: HL-60 > 10 µM | MDA-N > 10 µM | MCF7 5.21 µM | TK-10 > 10 µM | LOX IMVI > 10 µM | M14 > 10 µM | HOP-62 > 10 µM | CAKI-1 > 10 µM | PC-3 > 10 µM | NCI/ADR-RES > 10 µM | T47D > 10 µM | SK-MEL-2 > 10 µM | SR 8.77 µM | BT-549 > 10 µM | CCRF-CEM > 10 µM | UACC-62 > 10 µM | SF-268 > 10 µM

COc1ccc2c(c1)C(OC)C1c3c(cc4c(c3-2)OCO4)CCN1C (stereo not given)
inactive: HL-60 1.24 µM | MDA-N 2.86 µM | MCF7 2.67 µM | TK-10 4.53 µM | LOX IMVI 2.81 µM | M14 2.64 µM | HOP-62 2.43 µM | CAKI-1 2.12 µM | PC-3 2.6 µM | A498 1.82 µM | NCI/ADR-RES 1.87 µM | T47D 6.56 µM | SK-MEL-2 2.73 µM | SR 2.4 µM | BT-549 2.28 µM | CCRF-CEM 2.24 µM | UACC-62 2.11 µM | SF-268 4.63 µM

O=C(Cn1cc(F)c(=O)[nH]c1=O)C12CC3CC(CC(C3)C1)C2
inactive: HL-60 > 100 µM | MDA-N > 100 µM | MCF7 > 100 µM | TK-10 > 100 µM | LOX IMVI > 100 µM | M14 > 100 µM | HOP-62 > 100 µM | CAKI-1 > 100 µM | PC-3 > 100 µM | A498 > 100 µM | NCI/ADR-RES > 100 µM | T47D > 100 µM | SK-MEL-2 > 100 µM | SR > 100 µM | BT-549 > 100 µM | CCRF-CEM > 100 µM | UACC-62 > 100 µM | SF-268 > 100 µM

O=C1C(Cl)=C(OCCCl)C(=O)c2c(O)ccc(O)c21
inactive: MDA-N 2.91 µM | MCF7 2.06 µM | TK-10 2.6 µM | LOX IMVI 4.32 µM | M14 1.88 µM | HOP-62 16.7 µM | CAKI-1 2.38 µM | PC-3 13.2 µM | A498 20.5 µM | NCI/ADR-RES 15.2 µM | T47D 1.39 µM | BT-549 13.3 µM | UACC-62 3.88 µM | SF-268 5.47 µM
active: HL-60 0.0617 µM | SR 0.113 µM | CCRF-CEM 0.0813 µM

O=C1N(CN2CCOCC2)CN(CN2CCOCC2)C(=O)N1Cc1ccccc1
inactive: MDA-N 18.2 µM | MCF7 29.4 µM | TK-10 > 100 µM | LOX IMVI 15.5 µM | M14 19.2 µM | HOP-62 35.4 µM | CAKI-1 29.2 µM | PC-3 29.9 µM | A498 > 100 µM | NCI/ADR-RES 23.1 µM | T47D 30.3 µM | SK-MEL-2 16.3 µM | SR 18.8 µM | BT-549 21.6 µM | CCRF-CEM 28.7 µM | UACC-62 22.2 µM | SF-268 22 µM

CCN(CC)CCCNc1nncc2c(C)c3[nH]c4ccccc4c3cc12
inactive: TK-10 4.52 µM | M14 1.89 µM | CAKI-1 3.61 µM | NCI/ADR-RES 89.5 µM | SK-MEL-2 2.22 µM | BT-549 1.34 µM
active: HL-60 0.267 µM | MDA-N 1.06 µM | MCF7 0.331 µM | LOX IMVI 0.242 µM | HOP-62 0.378 µM | PC-3 0.705 µM | A498 0.665 µM | T47D 0.705 µM | SR 0.247 µM | CCRF-CEM 0.02 µM | UACC-62 0.637 µM

CC1=CC(=O)N(n2c(C)n[nH]c2=O)C1=O
inactive: MDA-N > 100 µM | MCF7 > 100 µM | TK-10 > 100 µM | LOX IMVI > 100 µM | M14 > 100 µM | CAKI-1 > 100 µM | PC-3 > 100 µM | A498 > 100 µM | NCI/ADR-RES > 100 µM | T47D > 100 µM | SK-MEL-2 > 100 µM | SR > 100 µM | BT-549 > 100 µM | CCRF-CEM > 100 µM | UACC-62 > 100 µM | SF-268 > 100 µM

Br[Se]c1ccccn1
inactive: HL-60 17.6 µM | MDA-N 17.7 µM | MCF7 17.7 µM | TK-10 20.2 µM | LOX IMVI 18.7 µM | M14 17.6 µM | HOP-62 2.48 µM | CAKI-1 18.7 µM | PC-3 16.4 µM | A498 17.9 µM | NCI/ADR-RES 26.1 µM | T47D 21.8 µM | SK-MEL-2 16.4 µM | SR 23.4 µM | BT-549 18.9 µM | CCRF-CEM 27.6 µM | UACC-62 17.1 µM | SF-268 18.2 µM

COc1ccc2cc(C(C)C(=O)N3C(=O)OCC3(C)C)ccc2c1 (stereo not given)
inactive: HL-60 > 100 µM | MDA-N > 100 µM | MCF7 > 100 µM | TK-10 > 100 µM | LOX IMVI > 100 µM | M14 > 100 µM | HOP-62 > 100 µM | PC-3 > 100 µM | A498 > 100 µM | NCI/ADR-RES > 100 µM | T47D > 100 µM | SR > 100 µM | BT-549 > 100 µM | CCRF-CEM > 10 µM | UACC-62 > 100 µM | SF-268 > 100 µM

COc1ccc2nc(-c3ccc(O)cc3)sc2c1
inactive: HL-60 24 µM | MDA-N 22.5 µM | MCF7 34.7 µM | TK-10 34.7 µM | LOX IMVI 22.6 µM | M14 22.7 µM | CAKI-1 29.3 µM | PC-3 18.5 µM | A498 30.3 µM | NCI/ADR-RES 29.8 µM | T47D 17.5 µM | SK-MEL-2 43.4 µM | SR 4.86 µM | BT-549 18.7 µM | UACC-62 21.7 µM | SF-268 21.1 µM

— ChEMBL document CHEMBL1201862, “PubChem BioAssay data set” (2004)
